Data taken from patent US8192962B2, “Processes for detecting toxic substances” (Daikin Industries, Ltd., priority 2001, dated 2012).

Tested on: Genes belonging to other category
Test: DNA chip mRNA expression in yeast, genes belonging to other category (Table 9)
Type: cell-based, Saccharomyces cerevisiae S288C
Method in brief: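 S. cerevisiae S288C grown at 25° C in YPD were exposed in log phase for two hours to one toxic chemical at a growth-inhibiting, non-lethal concentration; untreated cells served as control. Poly(A) mRNA was reverse-transcribed with Cy3/Cy5-dUTP and hybridized to a whole-genome yeast DNA chip at 65° C for over 12 hours; values are fluorescence ratios versus untreated.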

Measured: The level of expressed mRNA in the presence of chemical substance/The level of expressed mRNA in the absence of chemical substance

[Cl][Cd][Cl] [(2), CdCl2]
1.4: yeast gene YBL041W | yeast gene YDR315C | yeast gene YMR276W | yeast gene YNL333W | yeast gene YOR261C
0.5: yeast gene YER107C | yeast gene YIL123W | yeast gene YMR094W
0.8: yeast gene YDR432W | yeast gene YGR257C | yeast gene YHR142W | yeast gene YJL073W | yeast gene YJR004C | yeast gene YKL193C
2.0: yeast gene YCL027W | yeast gene YKL165C
1.8: yeast gene YDR085C | yeast gene YJL116C | yeast gene YMR226C
0.7: yeast gene YCR071C | yeast gene YDR388W | yeast gene YGL229C | yeast gene YLR391W | yeast gene YMR275C | yeast gene YOR198C
2.7: yeast gene YBL078C
2.3: yeast gene YDR481C
2.5: yeast gene YCL020W | yeast gene YPL109C
6.9: yeast gene YLR178C
14.3: yeast gene YMR104C
2.9: yeast gene YEL066W | yeast gene YGR213C | yeast gene YLR356W
2.4: yeast gene YNL007C
0.6: yeast gene YKL008C | yeast gene YKL096W | yeast gene YOR355W
0.9: yeast gene YBL005W-A | yeast gene YDR084C | yeast gene YDR115W | yeast gene YEL042W | yeast gene YFL022C | yeast gene YGR189C | yeast gene YKL013C | yeast gene YMR004W | yeast gene YOR036W | yeast gene YOR181W
9.0: yeast gene YLR136C
1.0: yeast gene YCR004C | yeast gene YDL008W | yeast gene YDL238C | yeast gene YDR259C | yeast gene YIL140W | yeast gene YLR250W | yeast gene YLR429W | yeast gene YOL013C | yeast gene YPL089C | yeast gene YPR108W
6.4: yeast gene YNL093W
1.3: yeast gene YDR510W | yeast gene YNR069C | yeast gene YOR117W | yeast gene YOR157C | yeast gene YOR185C | yeast gene YOR288C
1.5: yeast gene YJL089W | yeast gene YPL149W
1.9: yeast gene YLR120C
2.1: yeast gene YBR214W | yeast gene YDR055W | yeast gene YNL006W
1.2: yeast gene YAR010C | yeast gene YBL043W | yeast gene YER039C | yeast gene YFL043C | yeast gene YGR136W | yeast gene YLR362W | yeast gene YMR314W | yeast gene YNR010W
2.8: yeast gene YGL158W
4.3: yeast gene YOR383C
1.1: yeast gene YCR088W | yeast gene YDR104C | yeast gene YDR358W | yeast gene YFL028C | yeast gene YHR004C | yeast gene YHR071W | yeast gene YJR086W | yeast gene YKL039W | yeast gene YMR219W | yeast gene YOR124C | yeast gene YOR259C | yeast gene YPR103W
1.6: yeast gene YER130C | yeast gene YOR132W
4.6: yeast gene YHR139C
4.4: yeast gene YOL164W
3.3: yeast gene YLR327C | yeast gene YPL154C
